Assay results reported in patent US11173150B2, “Method for diagnosing, preventing, and treating neurological diseases” (United States Government As Represented By The Department …, priority 2010, dated 2021).
Values after ≈ are worked out from the molar mass of the structure shown.

How the values were obtained:
Desulfovibrio = assay: Antimicrobial susceptibility testing, CLSI serial two-fold plate dilution; type: cell-based; conditions: for MIC: Desulfovibrio
[1] = Open-label trial of oral vancomycin in children with regressive onset autism; type: in vivo, human
Description: To explore whether our index case's improvement represented a true therapeutic effect, institutional human investigation committee approval was obtained for an open-label trial in a narrowly defined subgroup of autistic children. Eleven children (10 males, 1 female; age range: 43-84 months) were enrolled. Inclusion criteria for the study were derived from our central hypothesis and index case characteristics. They include 1) Meets diagnostic criteria for Autistic Disorder (DSM IV 299.00); 2) Other genetic and medical diagnoses have been adequately evaluated and ruled out; 3) Definable, rapid onset after 12 months of age; 4) Antecedent antimicrobial use (<2 months of autism symptom onset); 5) Persistent loose stool history, with diarrhea onset before autism symptoms; 6) Symptoms for <4 years; 7) Child is 2-8 years of age; 8) No evidence of any significant medical problem that might complicate treatment such as renal, cardiac or pulmonary disease, severe enterocolitis (visible blood or pus in the stool), or chronic infection (e.g., tuberculosis); and 9) Clinically static for 3 months (no new neuroleptic, seizure, or other medications), with no elective changes during the study, and 10) No antimicrobial use for at least 2 months prior to entry into the study. All children had diarrhea and regressive onset of autistic features (occurring at a mean of 17.7±3.4 months) as previously defined in the literature.
The Developmental Profile II provided descriptive developmental levels to contrast with developmental age. […] The Childhood Autism Rating Scale (CARS) was also administered. The CARS is a 15-item behavioral rating scale developed to identify children with autism, and to distinguish them from developmentally handicapped children without the autism syndrome. Based upon CARS diagnostic categories, six children met the criteria for severe autism, two for moderate autism, and three for mild autism. The vancomycin dose was 500 mg/day given orally as a liquid (500 mg/6 ml), divided into 2 ml TID for eight weeks. This was followed by four weeks of oral treatment with a probiotic mixture of Lactobacillus acidophilus, L. bulgaricus, and Bifidobacterium bifidum (40×10^9 cfu/ml).
Two measures of potential improvement were examined: I) Children were videotaped for 30 minutes at baseline and once during therapy in a playroom environment. At each session, the child was directed to play with a series of puzzles, books, blocks, and dolls by the mother and then by the evaluator. At the end of the trial, a clinical child psychologist (who was provided with a brief explanation of our working hypothesis) compared coded, paired videotapes of 10 of the 11 children studied (video was not available for one child). The psychologist viewed each pair of tapes and scored them. […] 2) Behavior and communication analog rating scales were completed by the study physician at baseline, during therapy, and at follow-up in a manner similar to previously validated methods for other disease states. Results are presented as median scores to account for potential non-linear score increment.

[2] = Index case: 12 week therapeutic trial of oral vancomycin; type: in vivo, human; conditions: 125 mg QID oral, 12 weeks; person
Description: […] Diarrhea began after three 10 day courses of broad spectrum antimicrobials prescribed over a six week period for “chronic otitis media.” There was no blood or pus in the stool nor associated constitutional symptoms. There was profound behavioral and developmental deterioration, along with emergence of severe autistic features.
A 12 week therapeutic trial of oral vancomycin (125 mg QID) was begun with expanded observations by a pediatric neuropsychologist pre- and post-treatment. At baseline, the child was not on a special diet nor was […] taking any vitamin supplements. Three days after initiation of the vancomycin therapy, a hyperactivity pattern emerged which lasted for four days. […] became affectionate and relatively calm. […] promptly achieved toilet training and increased vocabulary. Follow-up behavioral observations after eight weeks of therapy noted an increase in on-task performance, compliance with parental requests, awareness of environmental surroundings, and persistence when engaging in positive activities. A significant reduction in repetitive and self-stimulatory behaviors was also noted. The child's educational therapies remained unchanged for both six months before and during the vancomycin trial. Shortly after vancomycin discontinuation, behavioral deterioration was observed. Though still improved over baseline, […] eventually lost most of the initial gains.

[3] = oral administration; cited from earlier work

Which results are given for `CN[C@H](CC(C)C)C(=O)N[C@H]1C(=O)N[C@@H](CC(N)=O)C(=O)N[C@H]2C(=O)N[C@H]3C(=O)N[C@H](C(=O)N[C@H](C(=O)O)c4cc(O)cc(O)c4-c4cc3ccc4O)[C@H](O)c3ccc(c(Cl)c3)Oc3cc2cc(c3O[C@@H]2O[C@H](CO)[C@@H](O)[C@H](O)[C@H]2O[C@H]2C[C@](C)(N)[C@H](O)[C@H](C)O2)Oc2ccc(cc2Cl)[C@H]1O` [Vancomycin]?
MIC (Desulfovibrio; Desulfovibrio strain 4019): > 512 µg/mL; MIC (Desulfovibrio; Desulfovibrio strain 8236): 256 µg/mL (≈ 177 µM); MIC (Desulfovibrio; Desulfovibrio strain 8381): > 512 µg/mL; MIC (Desulfovibrio; Desulfovibrio strain 8907): > 512 µg/mL; MIC (Desulfovibrio; Desulfovibrio strain 8933): > 512 µg/mL; MIC (Desulfovibrio; Desulfovibrio strain 8951): > 512 µg/mL; MIC (Desulfovibrio; Desulfovibrio strain 9070): > 512 µg/mL; MIC (Desulfovibrio; Desulfovibrio strain 9120): > 512 µg/mL; MIC (Desulfovibrio; Desulfovibrio strain 9706): > 512 µg/mL; MIC (Desulfovibrio; Desulfovibrio strain 9976): 512 µg/mL (≈ 353 µM); MIC (Desulfovibrio; Desulfovibrio strain 10831): 256 µg/mL (≈ 177 µM); MIC (Desulfovibrio; Desulfovibrio strain 11081): 256 µg/mL (≈ 177 µM); MIC (Desulfovibrio; Desulfovibrio strain 11094): > 512 µg/mL; MIC (Desulfovibrio; Desulfovibrio strain 11232): > 512 µg/mL; MIC (Desulfovibrio; Desulfovibrio strain 11346): > 512 µg/mL; MIC (Desulfovibrio; Desulfovibrio strain 11378): 256 µg/mL (≈ 177 µM); MIC (Desulfovibrio; Desulfovibrio strain 11437): > 512 µg/mL; MIC (Desulfovibrio; Desulfovibrio strain 11568): > 512 µg/mL; MIC (Desulfovibrio; Desulfovibrio strain 11623): > 512 µg/mL; MIC (Desulfovibrio; Desulfovibrio strain 11717): > 512 µg/mL; MIC (Desulfovibrio; Desulfovibrio strain 11789): > 512 µg/mL; MIC (Desulfovibrio; Desulfovibrio strain 11830): > 512 µg/mL; MIC (Desulfovibrio; Desulfovibrio strain 11949): > 512 µg/mL; MIC (Desulfovibrio; Desulfovibrio strain 12379): 256 µg/mL (≈ 177 µM); MIC (Desulfovibrio; Desulfovibrio strain 13966): > 512 µg/mL; MIC (Desulfovibrio; Desulfovibrio type strain 7757^T): > 512 µg/mL; MIC (Desulfovibrio; Desulfovibrio type strain 29098^T): 1 µg/mL (≈ 0.69 µM); MIC against Desulfovibrio, summary in words (Desulfovibrio; discussion of Table 14): not very active on a weight basis; Blinded assessment of coded, paired videotapes: children with improvement during therapy ([1]; 500 mg/day orally for eight weeks, no change in one, possible deterioration in one): eight of ten; Time to substantial behavioral deterioration after discontinuance ([1]; reported by most parents, telephone follow-up): two; Analog ratings at long-term follow-up ([1]; two to eight months after discontinuance, in all but one child): returned towards baseline; Analog rating scale, communication ([1]; unblinded, group as a whole, Wilcoxon Signed Ranks Z=2.9 p=0.003): improvement; Analog rating scale, behavior ([1]; unblinded, group as a whole, Wilcoxon Signed Ranks Z=-2.9, p=0.003): improvement; Children with brief (1-4 days) period of hyperactivity ([1]; within three days of initiating antibiotic treatment, eleven children enrolled): six; Clinical outcome of index case [2]: rapid and dramatic clinical improvement; Fecal levels after oral administration [3]: 2-5,000 mcg/gm
